Each structure is given as a SMILES string.

T1 sequence (O95180 whole entry): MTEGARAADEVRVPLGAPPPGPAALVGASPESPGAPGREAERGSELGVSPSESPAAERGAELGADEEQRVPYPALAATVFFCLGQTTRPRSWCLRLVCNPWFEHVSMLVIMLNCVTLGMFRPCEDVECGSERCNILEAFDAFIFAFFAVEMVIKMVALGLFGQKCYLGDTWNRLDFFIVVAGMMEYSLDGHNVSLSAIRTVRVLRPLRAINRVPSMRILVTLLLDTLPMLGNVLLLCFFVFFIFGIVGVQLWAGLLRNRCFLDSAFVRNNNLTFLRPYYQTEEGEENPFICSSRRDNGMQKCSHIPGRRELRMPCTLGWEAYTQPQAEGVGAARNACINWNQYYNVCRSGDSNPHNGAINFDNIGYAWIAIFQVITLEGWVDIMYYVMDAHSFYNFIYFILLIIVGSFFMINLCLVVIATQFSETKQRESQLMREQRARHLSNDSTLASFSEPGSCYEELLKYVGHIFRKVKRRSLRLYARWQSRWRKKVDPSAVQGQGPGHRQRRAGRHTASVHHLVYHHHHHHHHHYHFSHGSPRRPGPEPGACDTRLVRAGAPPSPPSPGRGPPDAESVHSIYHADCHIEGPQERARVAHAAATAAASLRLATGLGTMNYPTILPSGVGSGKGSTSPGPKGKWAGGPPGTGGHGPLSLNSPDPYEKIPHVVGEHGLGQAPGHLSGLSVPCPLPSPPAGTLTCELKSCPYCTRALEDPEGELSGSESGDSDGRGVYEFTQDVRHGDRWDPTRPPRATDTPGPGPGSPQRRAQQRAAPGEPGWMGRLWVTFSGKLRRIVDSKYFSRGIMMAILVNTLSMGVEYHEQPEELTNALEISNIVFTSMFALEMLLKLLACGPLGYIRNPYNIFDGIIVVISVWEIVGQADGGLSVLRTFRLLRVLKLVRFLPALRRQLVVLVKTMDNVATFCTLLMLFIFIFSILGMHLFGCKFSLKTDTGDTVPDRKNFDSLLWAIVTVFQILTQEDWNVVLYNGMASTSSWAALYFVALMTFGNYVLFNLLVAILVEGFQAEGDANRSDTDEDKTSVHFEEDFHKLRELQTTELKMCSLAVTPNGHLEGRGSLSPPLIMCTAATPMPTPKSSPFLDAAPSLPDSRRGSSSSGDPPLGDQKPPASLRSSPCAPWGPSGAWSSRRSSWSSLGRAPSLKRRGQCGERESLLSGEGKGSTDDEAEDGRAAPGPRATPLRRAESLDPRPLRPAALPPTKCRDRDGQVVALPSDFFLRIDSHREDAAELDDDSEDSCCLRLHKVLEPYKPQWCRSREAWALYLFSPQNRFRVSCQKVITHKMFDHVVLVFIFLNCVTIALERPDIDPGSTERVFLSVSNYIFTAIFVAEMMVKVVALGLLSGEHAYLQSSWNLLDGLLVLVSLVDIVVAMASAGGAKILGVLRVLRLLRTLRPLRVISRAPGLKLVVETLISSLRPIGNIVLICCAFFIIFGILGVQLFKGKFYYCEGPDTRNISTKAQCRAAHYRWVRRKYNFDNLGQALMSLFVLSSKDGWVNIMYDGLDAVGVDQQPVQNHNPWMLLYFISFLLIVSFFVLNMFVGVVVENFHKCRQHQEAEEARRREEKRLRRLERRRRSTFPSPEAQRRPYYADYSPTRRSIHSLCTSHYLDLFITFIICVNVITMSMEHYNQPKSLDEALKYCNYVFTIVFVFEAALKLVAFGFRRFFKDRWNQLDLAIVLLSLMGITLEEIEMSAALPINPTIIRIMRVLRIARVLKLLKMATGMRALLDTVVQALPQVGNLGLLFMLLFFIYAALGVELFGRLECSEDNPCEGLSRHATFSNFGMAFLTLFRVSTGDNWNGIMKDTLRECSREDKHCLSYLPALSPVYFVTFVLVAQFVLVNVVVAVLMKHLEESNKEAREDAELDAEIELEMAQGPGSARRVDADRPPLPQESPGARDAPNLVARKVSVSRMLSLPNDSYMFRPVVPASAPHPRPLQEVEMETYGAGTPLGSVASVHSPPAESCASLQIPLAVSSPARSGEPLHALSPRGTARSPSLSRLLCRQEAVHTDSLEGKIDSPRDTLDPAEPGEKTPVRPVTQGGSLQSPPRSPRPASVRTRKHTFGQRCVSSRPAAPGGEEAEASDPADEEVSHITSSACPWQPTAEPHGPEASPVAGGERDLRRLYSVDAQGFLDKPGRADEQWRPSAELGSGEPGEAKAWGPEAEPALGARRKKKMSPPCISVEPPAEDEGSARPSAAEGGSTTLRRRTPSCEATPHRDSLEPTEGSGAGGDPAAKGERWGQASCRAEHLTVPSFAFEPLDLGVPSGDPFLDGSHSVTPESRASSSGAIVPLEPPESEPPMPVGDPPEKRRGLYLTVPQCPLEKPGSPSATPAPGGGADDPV

The experiment concerns the target T1, voltage-dependent T-type calcium channel subunit alpha-1G (Cav3.2) (Homo sapiens, UniProt O95180).
T1 construct: expressed in transfected cells; host or cells: HEK293
Description: FLIPR calcium flux assay, HEK293 cells recombinantly expressing Cav3.2. It counts as cell-based. The note with it: Cav3.2-channel, Fluo-4-AM, 3 min incubation, stimulation with 10 mM CaCl2. In a few lines: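 Calcium influx was triggered by adding CaCl2 to 10 mM final, 3 min after compounds in tetraethylammonium-based buffer, pH 7.2, reached Fluo-4-AM-loaded recombinant HEK293 cells. The integrated kinetic fluorescence signal per concentration gave concentration-response curves by non-linear sigmoidal regression.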
(A change in cytosolic calcium serves as a functional read-out for many receptors and channels.)
On to `Cc1nc(-c2ccc(CC(=O)Nc3ccn(Cc4ccc(F)c(F)c4)n3)cc2)no1` [Example 235, N-[1-(3,4-Difluoro-benzyl)-1H-pyrazol-3-yl]-2-[4-(5-methyl-[1,2,4]oxadiazol-3-yl)-phenyl]-acetamide], for which the IC50 (usually the concentration at which inhibition is half-maximal) amounted to 42 nM. Under `O=C(Cc1ccc(-c2ncon2)cc1)Nc1ccn(Cc2ccc(F)c(F)c2)n1` [Example 236, N-[1-(3,4-Difluoro-benzyl)-1H-pyrazol-3-yl]-2-(4-[1,2,4]oxadiazol-3-yl-phenyl)-acetamide] stands 18 nM. Under `CN(C)c1ccc(CC(=O)Nc2ccn(Cc3ccc(Br)cc3)n2)cc1` [Example 239, N-[1-(4-Bromo-benzyl)-1H-pyrazol-3-yl]-2-(4-dimethylamino-phenyl)-acetamide] stands 2.4 nM; under `O=C(Cc1ccc(OCC2COC2)cc1)Nc1ccn(Cc2ccc(F)c(F)c2)n1` [Example 242, N-[1-(3,4-Difluoro-benzyl)-1H-pyrazol-3-yl]-2-[4-(oxetan-3-ylmethoxy)-phenyl]-acetamide], 39 nM. Consider `CC1(COc2ccc(CC(=O)Nc3ccn(Cc4ccc(F)c(F)c4)n3)cc2)CC(F)(F)C1` [Example 243, N-[1-(3,4-Difluoro-benzyl)-1H-pyrazol-3-yl]-2-[4-(3,3-difluoro-1-methyl-cyclobutylmethoxy)-phenyl]-acetamide], for which the IC50 worked out at 37 nM.

`O=C(Cc1ccc(OCC2CC(F)(F)C2)cc1)Nc1ccn(Cc2ccc(F)c(F)c2)n1` [Example 244, N-[1-(3,4-Difluoro-benzyl)-1H-pyrazol-3-yl]-2-[4-(3,3-difluoro-cyclobutylmethoxy)-phenyl]-acetamide]: the IC50 is 33 nM. Under `O=C(Cc1ccc(OCC2(F)COC2)cc1)Nc1ccn(Cc2ccc(F)c(F)c2)n1` [Example 245, N-[1-(3,4-Difluoro-benzyl)-1H-pyrazol-3-yl]-2-[4-(3-fluoro-oxetan-3-ylmethoxy)-phenyl]-acetamide] stands 30 nM; under `N#Cc1ccc(Cn2ccc(NC(=O)Cc3ccc(C4(F)COC4)cc3)n2)nc1` [Example 246, N-[1-(5-Cyano-pyridin-2-ylmethyl)-1H-pyrazol-3-yl]-2-[4-(3-fluoro-oxetan-3-yl)-phenyl]-acetamide], 705 nM; under `N#Cc1ccc(Cn2ccc(NC(=O)Cc3ccc(OC4COC4)cc3)n2)nc1` [Example 247, N-[1-(5-Cyano-pyridin-2-ylmethyl)-1H-pyrazol-3-yl]-2-[4-(oxetan-3-yloxy)-phenyl]-acetamide], 2590 nM. The result for `N#Cc1ccc(Cn2ccc(NC(=O)Cc3ccc(OCC4(F)COC4)cc3)n2)nc1` [Example 248, N-[1-(5-Cyano-pyridin-2-ylmethyl)-1H-pyrazol-3-yl]-2-[4-(3-fluoro-oxetan-3-ylmethoxy)-phenyl]-acetamide] reads 1810 nM.

Take `Cn1ncc2cc(CC(=O)Nc3ccn(Cc4ccc(C#N)cn4)n3)ccc21` [Example 249, N-[1-(5-Cyano-pyridin-2-ylmethyl)-1H-pyrazol-3-yl]-2-(1-methyl-1H-indazol-5-yl)-acetamide]: the IC50 worked out at 295 nM. Under `N#Cc1ccc(Cn2ccc(NC(=O)Cc3ccc(C4(F)COC4)cc3)n2)cc1` [Example 250, N-[1-(4-Cyano-benzyl)-1H-pyrazol-3-yl]-2-[4-(3-fluoro-oxetan-3-yl)-phenyl]-acetamide] stands 127 nM; under `N#Cc1ccc(Cn2ccc(NC(=O)Cc3ccc(OC4COC4)cc3)n2)cc1` [Example 251, N-[1-(4-Cyano-benzyl)-1H-pyrazol-3-yl]-2-[4-(oxetan-3-yloxy)-phenyl]-acetamide], 303 nM. The result for `Cn1ncc2cc(CC(=O)Nc3ccn(Cc4ccc(C#N)cc4)n3)ccc21` [Example 252, N-[1-(4-Cyano-benzyl)-1H-pyrazol-3-yl]-2-(1-methyl-1H-indazol-5-yl)-acetamide] reads 56 nM; that for `N#Cc1ccc(Cn2ccc(NC(=O)Cc3ccc(C4(F)COC4)cc3)n2)cc1F` [Example 253, N-[1-(4-Cyano-3-fluoro-benzyl)-1H-pyrazol-3-yl]-2-[4-(3-fluoro-oxetan-3-yl)-phenyl]-acetamide], 57 nM; that for `N#Cc1ccc(Cn2ccc(NC(=O)Cc3ccc(OC4COC4)cc3)n2)cc1F` [Example 254, N-[1-(4-Cyano-3-fluoro-benzyl)-1H-pyrazol-3-yl]-2-[4-(oxetan-3-yloxy)-phenyl]-acetamide], 100 nM. For the molecule `Cn1ncc2cc(CC(=O)Nc3ccn(Cc4ccc(C#N)c(F)c4)n3)ccc21` [Example 255, N-[1-(4-Cyano-3-fluoro-benzyl)-1H-pyrazol-3-yl]-2-(1-methyl-1H-indazol-5-yl)-acetamide], the IC50 was 52 nM.

Regarding `N#Cc1ccc(Cn2ccc(NC(=O)Cc3ccc(OCC4(F)COC4)cc3)n2)cc1` [Example 256, N-[1-(4-Cyano-benzyl)-1H-pyrazol-3-yl]-2-[4-(3-fluoro-oxetan-3-ylmethoxy)-phenyl]-acetamide], the IC50 was 251 nM. Regarding `N#Cc1ccc(Cn2ccc(NC(=O)Cc3ccc(OCC4(F)COC4)cc3)n2)cc1F` [Example 257, N-[1-(4-Cyano-3-fluoro-benzyl)-1H-pyrazol-3-yl]-2-[4-(3-fluoro-oxetan-3-ylmethoxy)-phenyl]-acetamide], the IC50 stood at 76 nM. Regarding `COC1(c2ccc(CC(=O)Nc3ccn(Cc4ccc(F)c(F)c4)n3)cn2)COC1` [Example 258, N-[1-(3,4-Difluoro-benzyl)-1H-pyrazol-3-yl]-2-[6-(3-methoxy-oxetan-3-yl)-pyridin-3-yl]-acetamide], the IC50 is 934 nM. Under `Cc1cn(C)c2cc(CC(=O)Nc3ccn(Cc4ccc(F)c(F)c4)n3)ccc12` [Example 259, N-[1-(3,4-Difluoro-benzyl)-1H-pyrazol-3-yl]-2-(1,3-dimethyl-1H-indol-6-yl)-acetamide] stands 4.1 nM; under `Cc1cn(C)c2ccc(CC(=O)Nc3ccn(Cc4ccc(F)c(F)c4)n3)cc12` [Example 260, N-[1-(3,4-Difluoro-benzyl)-1H-pyrazol-3-yl]-2-(1,3-dimethyl-1H-indol-5-yl)-acetamide], 3.1 nM. Under `N#Cc1ccc(Cn2ccc(NC(=O)Cc3ccc(OC4CC(F)(F)C4)cc3)n2)cc1F` [Example 261, N-[1-(4-Cyano-3-fluoro-benzyl)-1H-pyrazol-3-yl]-2-[4-(3,3-difluoro-cyclobutoxy)-phenyl]-acetamide] stands 15 nM.

In the case of `N#Cc1ccc(Cn2ccc(NC(=O)Cc3ccc(OCC4COC4)cc3)n2)cc1F` [Example 262, N-[1-(4-Cyano-3-fluoro-benzyl)-1H-pyrazol-3-yl]-2-[4-(oxetan-3-ylmethoxy)-phenyl]-acetamide], the IC50 stood at 155 nM.

As for `CC1(COc2ccc(CC(=O)Nc3ccn(Cc4ccc(C#N)c(F)c4)n3)cc2)COC1` [Example 263, N-[1-(4-Cyano-3-fluoro-benzyl)-1H-pyrazol-3-yl]-2-[4-(3-methyl-oxetan-3-ylmethoxy)-phenyl]-acetamide], the 50% inhibitory concentration (IC50) is 97 nM. Turning to `CC(C)(C)c1ccc(CC(=O)Nc2ccn(Cc3ccc(C#N)c(F)c3)n2)cc1` [Example 264, 2-(4-tert-Butyl-phenyl)-N-[1-(4-cyano-3-fluoro-benzyl)-1H-pyrazol-3-yl]-acetamide], the IC50 came out at 5.4 nM. Under `N#Cc1ccc(Cn2ccc(NC(=O)Cc3ccc(C4(C(F)(F)F)CC4)cc3)n2)cc1F` [Example 265, N-[1-(4-Cyano-3-fluoro-benzyl)-1H-pyrazol-3-yl]-2-[4-(1-trifluoromethyl-cyclopropyl)-phenyl]-acetamide] stands 15 nM; under `CC(C)c1ccc(CC(=O)Nc2ccn(Cc3ccc(C#N)c(F)c3)n2)cc1` [Example 266, N-[1-(4-Cyano-3-fluoro-benzyl)-1H-pyrazol-3-yl]-2-(4-isopropyl-phenyl)-acetamide], 6.6 nM; under `N#Cc1cc(Cn2ccc(NC(=O)Cc3ccc(OCC4(F)COC4)cc3)n2)ccc1F` [Example 267, N-[1-(3-Cyano-4-fluoro-benzyl)-1H-pyrazol-3-yl]-2-[4-(3-fluoro-oxetan-3-ylmethoxy)-phenyl]-acetamide], 90 nM. Take `Cn1ncc2cc(CC(=O)Nc3ccn(Cc4ccc(F)c(C#N)c4)n3)ccc21` [Example 268, N-[1-(3-Cyano-4-fluoro-benzyl)-1H-pyrazol-3-yl]-2-(1-methyl-1H-indazol-5-yl)-acetamide]: the IC50 stood at 35 nM.

As for `N#Cc1cc(Cn2ccc(NC(=O)Cc3ccc(OC4COC4)cc3)n2)ccc1F` [Example 269, N-[1-(3-Cyano-4-fluoro-benzyl)-1H-pyrazol-3-yl]-2-[4-(oxetan-3-yloxy)-phenyl]-acetamide], the IC50 was found to be 162 nM. In the case of `N#Cc1cc(Cn2ccc(NC(=O)Cc3ccc(C4(F)COC4)cc3)n2)ccc1F` [Example 270, N-[1-(3-Cyano-4-fluoro-benzyl)-1H-pyrazol-3-yl]-2-[4-(3-fluoro-oxetan-3-yl)-phenyl]-acetamide], the IC50 came out at 51 nM.

In the case of `CC(C)(C)c1ccc(CC(=O)Nc2ccn(Cc3ccc(C#N)cc3)n2)cc1` [Example 271, 2-(4-tert-Butyl-phenyl)-N-[1-(4-cyano-benzyl)-1H-pyrazol-3-yl]-acetamide], the IC50 worked out at 3.4 nM. For the molecule `N#Cc1ccc(Cn2ccc(NC(=O)Cc3ccc(OC4CC(F)(F)C4)cc3)n2)cc1` [Example 273, N-[1-(4-Cyano-benzyl)-1H-pyrazol-3-yl]-2-[4-(3,3-difluoro-cyclobutoxy)-phenyl]-acetamide], the IC50 was found to be 35 nM. The result for `N#Cc1ccc(Cn2ccc(NC(=O)Cc3ccc(OC4CC(F)(F)C4)cc3)n2)nc1` [Example 274, N-[1-(5-Cyano-pyridin-2-ylmethyl)-1H-pyrazol-3-yl]-2-[4-(3,3-difluoro-cyclobutoxy)-phenyl]-acetamide] reads 133 nM; that for `N#Cc1ccc(Cn2ccc(NC(=O)Cc3ccc(N4CCCC4)nc3)n2)cc1F` [Example 275, N-[1-(4-Cyano-3-fluoro-benzyl)-1H-pyrazol-3-yl]-2-(6-pyrrolidin-1-yl-pyridin-3-yl)-acetamide], 14 nM.

(Values after US9932314B2, “Pyrazole compounds and their use as T-type calcium channel blockers” (IDORSIA PHARMACEUTICALS LTD, priority 2015, dated 2018).)
